The results in this text go back to patent publication US12667584B2, “Adenosine analog and its use in regulating the circadian clock” (NATIONAL INSTITUTE OF BIOLOGICAL SCIENCES, BEIJING, priority 2017, dated 2026).

The structures appear in SMILES notation. Read-outs that look alike come from different tables or passages of the source. A value given as a limit tells only on which side of the number the result lay.

The test has as its system Per2-Luc reporter U2OS cells (D15). Description: Circadian phase shift cell assay in D15 cells, 384 well plate, Tecan, with or without pentostatin. It counts as cell-based, human. As to conditions: for minimal effective concentration: read-out: Cell Assay; for With Pentostadin Cell Assay: pentostatin 5 μg/ml; for amplitude effect, Per2:luc signal versus control / period effect: under the concentration of 100 μM.

[1] abbreviates: Homo sapiens, U2OS, without pentostatin, concentration that shifts the circadian phase.
Setting [2] is: concentration that shifts the circadian phase.
Setting [3] is: without pentostatin, concentration that shifts the circadian phase.

Consider `CC1(CCC(=O)O[C@@H]2[C@H](O)[C@@H](COC(=O)CCCC(=O)NCCCOCCOCCOCCCNC(=O)CCCC[C@H]3SC[C@H]4NC(=O)N[C@H]43)O[C@H]2n2cnc3c(N)ncnc32)N=N1`, for which the minimal effective concentration under setting [1] is greater than 500 µM. In addition, the “With Pentostadin Cell Assay” value under setting [2] stood at 100 µM.
As for `O=C1N[C@H]2[C@H](CS[C@H]2CCCCC(=O)OC[C@H]2O[C@@H](n3cnc4cc(Cl)c(Cl)cc43)C(O)C2O)N1` (some centres unmarked), the minimal effective concentration under setting [1] came out at 40 µM.
As to `C#CC(O)C1O[C@@H](n2cnc3c(N)ncnc32)[C@H](O)[C@H]1O` (some centres unmarked), the minimal effective concentration under setting [1] is greater than 500 µM. Also, the “With Pentostadin Cell Assay” value under setting [2] turned out to be 100 µM.
`Nc1ncnc2c1c(Br)cn2[C@@H]1O[C@H](CO)C[C@H]1O` [drawing 349]: the minimal effective concentration under setting [1] was greater than 500 µM. Under setting [2], the “With Pentostadin Cell Assay” value is 100 µM.
As for `OC[C@H]1O[C@@H](n2cnc3c(Nc4cccc(O)c4)ncnc32)C(O)C1O` (some centres unmarked), the minimal effective concentration under setting [1] turned out to be 200 µM.
Take `Nc1nc(F)nc2c1nc(F)n2[C@@H]1O[C@H](CO)[C@H](O)[C@H]1O`: under setting [1], the minimal effective concentration is greater than 500 µM. Further, the “With Pentostadin Cell Assay” value under setting [2] was determined as 200 µM.
With `CNc1nc2c(=O)[nH]c(N)nc2n1[C@@H]1O[C@H](CO)C(O)C1O` (some centres unmarked), under setting [1], the minimal effective concentration stood at 100 µM.
In the case of `Nc1ncnc2c1ncn2[C@@H]1O[C@@H]2COC2[C@H]1O` (some centres unmarked), under setting [1], the minimal effective concentration is greater than 500 µM. The “With Pentostadin Cell Assay” value under setting [2] stood at 100 µM.
Turning to `Nc1ncnc2c1ncn2[C@@H]1O[C@H](CO)C(O)C1OC(=O)CCCC[C@@H]1SC[C@@H]2NC(=O)N[C@@H]21` (some centres unmarked), the minimal effective concentration under setting [1] was greater than 500 µM. For the same molecule, the “With Pentostadin Cell Assay” value under setting [2] was 2 µM.
For `Nc1ncnc2c1ccn2[C@@H]1O[C@H](CO)C(O)C1O` (some centres unmarked) [drawing 318], the “With Pentostadin Cell Assay” value under setting [2] was determined as 25 µM.
Regarding `Nc1nc(Br)nc2c1ncn2[C@@H]1O[C@H](CO)C[C@H]1O`, the minimal effective concentration under setting [1] is greater than 500 µM. Moreover, the “With Pentostadin Cell Assay” value under setting [2] came to 100 µM.
For `Nc1ncnc2c1ncn2[C@@H]1O[C@H](CO)[C@H](OC(=O)CCCC[C@@H]2SC[C@@H]3NC(=O)N[C@@H]32)[C@H]1O` the same measures were greater than 500 µM and 25 µM.
In the same order, the values of `C=C[C@@H]1CC(O)[C@H](n2cnc3c(N)ncnc32)O1` (some centres unmarked) are 200 µM and 25 µM.
In the same order, the values of `[2H]c1nc(N)c2nc([2H])n([C@@H]3O[C@H](CO)[C@H](O)[C@H]3O)c2n1` [drawing 353] are 12.5 µM and 25 µM.
For `Nc1ncnc2c1ccn2[C@@H]1O[C@H](CO)CC1O` (some centres unmarked), the minimal effective concentration under setting [1] came to 200 µM. Besides, the “With Pentostadin Cell Assay” value under setting [2] is 25 µM.
In the same order, the values of `OC[C@H]1O[C@@H](n2cnc3cc(Cl)c(Cl)cc32)C(O)C1O` (some centres unmarked) [drawing 289] are 10 µM and 10 µM.
For `Nc1ncnc2c1ncn2[C@@H]1O[C@@H]2COP(=O)(O)OC2C1O` (some centres unmarked), for the setting “Homo sapiens, U2OS”, the minimal effective concentration was determined as 200 µM.
The same measure, in the same setting: then `Nc1ncnc2c1c(I)cn2[C@@H]1O[C@H](CO)C(O)C1O` (some centres unmarked), with 0.3 µM.
With `Nc1ncnc2c1ncn2[C@H]1CC[C@@H](CO)O1`, the minimal effective concentration under setting [1] was 200 µM.
As to `OC[C@H]1O[C@@H](n2cnc3cc(Cl)c(Cl)cc32)C(O)C1O` (some centres unmarked) [drawing 284], under setting [3], the minimal effective concentration came to 10 µM.
On to `Nc1ncnc2c1c(Br)cn2[C@@H]1O[C@H](CO)C[C@H]1O` [NQZ-194], for which the “amplitude effect, Per2:luc signal versus control” value is “more than two fold of control”.
Consider `Nc1ncnc2c1ncn2[C@@H]1O[C@H](C2NN2)CC1O` (some centres unmarked), for which, under “Homo sapiens, U2OS”, the minimal effective concentration was greater than 500 µM. Moreover, the “With Pentostadin Cell Assay” value under setting [2] turned out to be 100 µM.
Regarding `[2H]c1nc(N)c2nc([2H])n([C@@H]3O[C@H](CO)[C@H](O)[C@H]3O)c2n1` [NQZ-198], the “amplitude effect, Per2:luc signal versus control” value is “more than two fold of control”.
Turning to `O=C(CCCC[C@@H]1SC[C@@H]2NC(=O)N[C@@H]21)Nc1ncnc2c1ncn2[C@@H]1O[C@H](CO)CC1O` (some centres unmarked) [drawing 292], the “With Pentostadin Cell Assay” value under setting [2] was determined as 25 µM. The minimal effective concentration under setting [3] is on record as greater than 500 µM.
For `O=C(CCCC[C@@H]1SC[C@@H]2NC(=O)N[C@@H]21)Nc1ncnc2c1ncn2[C@@H]1O[C@H](CO)CC1O` (some centres unmarked) [drawing 315], under setting [3], the minimal effective concentration was 200 µM.
Regarding `CC1(CCC(=O)O[C@@H]2[C@@H](O)[C@H](n3cnc4c(N)ncnc43)O[C@@H]2COC(=O)CCCC(=O)NCCCOCCOCCOCCCNC(=O)CCCC[C@H]2SC[C@H]3NC(=O)N[C@H]32)N=N1`, the minimal effective concentration under setting [1] was greater than 500 µM. Under setting [2], the “With Pentostadin Cell Assay” value was determined as 100 µM.
Consider `Nc1nc(F)nc2c1ncn2[C@@H]1O[C@H](CO)C(O)C1O` (some centres unmarked), for which the minimal effective concentration under setting [1] was determined as 50 µM.
On to `Nc1cc(Cl)nc2c1ncn2[C@@H]1O[C@H](CO)C(O)C1O` (some centres unmarked), for which the minimal effective concentration under setting [1] is greater than 500 µM. Besides, the “With Pentostadin Cell Assay” value under setting [2] amounted to 100 µM.
On to `Nc1ncnc2c1ncn2[C@@H]1O[C@H](CO)C(O)C1O` (some centres unmarked), for which, under setting [1], the minimal effective concentration is 12.5 µM. Further, the “With Pentostadin Cell Assay” value under setting [2] was determined as 0.5 µM.
Consider `CNC(=O)c1cnn(-c2nc(N)c3ncn([C@@H]4O[C@H](CO)C(O)C4O)c3n2)c1` (some centres unmarked), for which, under setting [1], the minimal effective concentration stood at 100 µM.
`Nc1ncnc2c1c(F)cn2[C@@H]1O[C@H](CO)[C@H](O)[C@H]1O`: the minimal effective concentration under setting [1] is greater than 500 µM. Moreover, the “With Pentostadin Cell Assay” value under setting [2] amounted to 100 µM.
In the same order, the values of `COc1cc2c(N)ncnc2n1[C@@H]1O[C@H](CO)[C@H](O)[C@H]1O` are greater than 500 µM and 100 µM.
As to `Nc1ncnc2c1c(Br)cn2[C@@H]1O[C@H](CO)[C@H](O)[C@H]1O` [NQZ-168], the period effect entry was “elongation period effect”.
For `OC[C@H]1O[C@@H](n2c(F)nc3c(F)nc(F)nc32)[C@H](O)[C@H]1O` [NQZ-195], the period effect entry was “elongation period effect”.
On to `Nc1ncnc2c1ncn2[C@@H]1O[C@H](COP(=O)(O)O)CC1O` (some centres unmarked), for which the minimal effective concentration under setting [1] came to 100 µM.
`Nc1ncnc2c1c(Br)cn2[C@H]1O[C@H](CO)[C@H](O)[C@H]1O`: the minimal effective concentration under setting [1] is greater than 500 µM. Also, under setting [2], the “With Pentostadin Cell Assay” value turned out to be 50 µM.
For `Nc1ncnc2c1ncn2[C@@H]1O[C@H](COC(=O)CCCC[C@@H]2SC[C@@H]3NC(=O)N[C@@H]32)C(O)C1O` (some centres unmarked), the minimal effective concentration under setting [1] was greater than 500 µM. For the same molecule, the “With Pentostadin Cell Assay” value under setting [2] came out at 2 µM.
As to `Nc1ncnc2c1ncn2[C@@H]1O[C@H](COC(=O)CCCC[C@@H]2SC[C@@H]3NC(=O)N[C@@H]32)CC1O` (some centres unmarked) [drawing 290], the “With Pentostadin Cell Assay” value under setting [2] came out at 6 µM. For the same molecule, the minimal effective concentration under setting [3] is given as greater than 500 µM.
On to `Nc1nc2c([nH]c(=S)n2[C@@H]2O[C@H](CO)C(O)C2O)c(=O)[nH]1` (some centres unmarked), for which, under setting [1], the minimal effective concentration is 100 µM.
For `Nc1ncnc2c1c(F)cn2[C@H]1O[C@H](CO)[C@H](O)[C@H]1O`, under setting [1], the minimal effective concentration is greater than 500 µM. For the same molecule, the “With Pentostadin Cell Assay” value under setting [2] came to 100 µM.
In the case of `OC[C@@H]1CC(O)[C@H](n2cnc3cc(Cl)c(Cl)cc32)O1` (some centres unmarked), the minimal effective concentration under setting [1] came to 10 µM.
Turning to `Nc1ncnc2c1cc(Br)n2[C@@H]1O[C@H](CO)[C@H](O)[C@H]1O`, the minimal effective concentration under setting [1] is greater than 500 µM. The “With Pentostadin Cell Assay” value under setting [2] was determined as 100 µM.
Consider `Nc1ncnc2c1cc(Br)n2[C@@H]1O[C@H](CO)C[C@H]1O`, for which the minimal effective concentration under setting [1] is greater than 500 µM. Moreover, the “With Pentostadin Cell Assay” value under setting [2] amounted to 100 µM.
